Test results published in patent publication US6498254B1, “Antiretroviral compounds and compositions” (Uniroyal Chemical Company, Inc., priority 2001, dated 2002).
In brackets after ≈: the same amount, converted by molar mass. Where two headings read alike, the source gives them in different places.

Experiments:
HIV-2 (ROD) = assay: Inhibition of HIV-2 syncytium formation in CEM cells; type: cell-based; conditions: for EC50: Human immunodeficiency virus 2, CCRF-CEM, read-out: EC50 (μg/ml) HIV-2; for HIV-2 % Protection: protection of CEM cells against virus-induced cytopathicity at the compound concentration in the previous column
Text: (§1) The cell type used to determine activity of the compounds of the invention herein, i.e., the test compounds, against HIV was human T-lymphoblast (CEM) cells obtained from the American Tissue Cell Culture Collection (Rockville, Md.). HIV-1 (IIIB) was originally obtained from the culture of persistently HIV-1 infected H9 cells and was provided by R. C. Gallo and M. Popovic (National Cancer Institute, National Institutes of Health, Bethesda, Md.). HIV-2 (ROD) was originally obtained from L. M. Montagnier (Pasteur Institute, Paris, France).
(§2) To determine the antiviral activity of the test compounds, CEM cells were suspended at a cell density of approximately 300,000 cells per ml of culture medium and infected with approximately 100 CClD50 (100 CClD50 being the 50% cell culture infective dose) of HIV-1 (IIIB) or HIV-2 (ROD)). Then 100 μl of the infected cell suspensions was added to 200 μl micro titer plate wells containing 100 μl of appropriate serial (5-fold) dilutions of the test compounds. The inhibitory effect of the test compounds on HIV-1 or HIV-2 syncytium formation in CEM cells was examined microscopically on day four post infection. The 50% effective concentration (EC50) was defined as the test compound concentration that inhibits syncytium formation in the HIV-1 or HIV-2 infected cell cultures by 50%.
(§3) In some cases, the compounds had considerable cytotoxicity to CEM cells which made determination of the EC50 difficult. In these cases, the percent protection of the cells against virus-induced cytopathicity by the test compounds at the indicated compound concentration in the previous column is given.

HIV-1 (IIIB) = assay: Inhibition of HIV-1 syncytium formation in CEM cells; type: cell-based; conditions: for EC50: read-out: EC50 (μg/ml) HIV-1; for HIV-1 % Protection: protection of CEM cells against virus-induced cytopathicity at the compound concentration in the previous column
Text: as §1, §2, §3

CMV Davis strain = assay: Activity against HCMV: virus-induced cytopathicity in HEL cells; type: cell-based, human cytomegalovirus (HCMV); conditions: for IC50: read-out: Antiviral IC50 (μg/ml) Davis strain; for Antiviral % Inhibition Davis strain: estimate of percent protection of HEL cells at the compound concentration
Description: Confluent HEL cells grown in […] microtiter plates were inoculated with CMV at an input of 100 PFU (plaque forming units) per well. After a one to two hour incubation period, residual virus was removed and the infected cells were further incubated with MEM (Minimal Essential Medium) (supplemented with 2% inactivated Fetal Calf Serum (FCS), […], and 0.3% sodium bicarbonate) containing varying concentrations of the test compounds. Antiviral activity was expressed as EC50 (50% effective concentration), or test compound concentration required to reduce virus-induced cytopathicity after seven days by 50% compared to the untreated control.
In some cases, the compounds had considerable cytotoxicity against HEL cells, which made determination of the EC50's difficult. In these cases, an estimate of the percent protection at the compound concentration indicated in the previous columns is given.

[1] = HIV-2 (ROD) infected CEM cells, syncytium formation, day four post infection
[2] = Human immunodeficiency virus 1, CCRF-CEM, HIV-1 (IIIB) infected CEM cells, syncytium formation, day four post infection
[3] = Human betaherpesvirus 5, 168 h, CMV-infected HEL cells, virus-induced cytopathicity after seven days
[4] = Human immunodeficiency virus 1, IIIB, CCRF-CEM
[5] = Human betaherpesvirus 5, HEL, 168 h
[6] = HIV-1 (IIIB) infected CEM cells, syncytium formation, day four post infection
[7] = CMV-infected HEL cells, virus-induced cytopathicity after seven days

Compound | EC50 (HIV-2 (ROD); [1]) [µg/mL] | EC50 (HIV-1 (IIIB); [2]) [µg/mL] | IC50 (CMV Davis strain; [3]) [µg/mL] | Antiviral % Inhibition Davis strain (CMV Davis strain) [%] | melting point [°C] | HIV-2 % Protection (HIV-2 (ROD)) [%] | HIV-1 % Protection (HIV-1 (IIIB)) [%] | EC50 (HIV-2 (ROD)) [µg/mL] | EC50 (HIV-1 (IIIB); [4]) [µg/mL] | IC50 (CMV Davis strain; [5]) [µg/mL] | EC50 (μg/ml) HIV-2 (HIV-2 (ROD); [1]) [µg/mL] | EC50 (μg/ml) HIV-1 (HIV-1 (IIIB); [6]) [µg/mL] | Antiviral IC50 (μg/ml) Davis strain (CMV Davis strain; [7]) [µg/mL]
O=[N+]([O-])c1cc(CS(=O)(=O)c2cccc[n+]2[O-])ccc1Cl [Compound 64, 2-[[(3-nitro-4-chlorophenyl)methyl]sulfonyl]pyridine-N-oxide] | 1.9 (≈ 5.78 µM) | 1.5 (≈ 4.56 µM) | > 5 | 10.0 | 168 to 170 |  |  |  |  |  |  |  | 
Cc1ccc(C)c(C(C)S(=O)(=O)c2cccc(Cl)[n+]2[O-])c1 (stereo not shown) [Compound 76, 2-[1-(2,5-dimethylphenyl)ethylsulfonyl]-6-chloropyridine-N-oxide] | 2.4 (≈ 7.37 µM) | 0.9 (≈ 2.76 µM) | > 9.1 |  | 197 to 200 |  |  |  |  |  |  |  | 
Cc1ccc(C)c(C(C)S(=O)(=O)c2cc(C)cc(C)[n+]2[O-])c1 (stereo not shown) [Compound 81, 2-[1-(2,5-dimethylphenyl)ethylsulfonyl]-4,6-dimethylpyridine-N-oxide] | > 20 | ≥ 20 | 8.6 (≈ 26.9 µM) |  | 201 to 204 | 0.0 | 37.5 |  |  |  |  |  | 
Cc1ccc(C)c(C(Cl)S(=O)(=O)c2ccccn2)c1 (stereo not shown) [Compound 106, 2[(2,5-dimethylphenyl)chloromethylsulfonyl]pyridine] | > 4 | 0.9 (≈ 3.04 µM) | 20 (≈ 67.6 µM) |  | 117 to 119 | 0.0 |  |  |  |  |  |  | 
Cc1ccc(C)c(CSc2cccc[n+]2C)c1 [Compound 142, 2[[(2,5-dimethylphenyl)methyl]thio]-1-methylpyridinium chloride] |  |  |  |  |  | 0.0 | 0.0 | > 4 | > 4 | 3.4 |  |  | 
O=[N+]([O-])c1cccnc1SCc1ccccc1 [Compound 146, 2-benzylthio-3-nitropyridine] |  |  |  |  |  | 37.5 |  | ≥ 20 | 2.3 (≈ 9.34 µM) | 40 (≈ 162 µM) |  |  | 
Cc1ccc(C)c(CSc2ccccn2)c1 [Compound 148, 2-((2,5-dimethylphenyl)methylthio) pyridine] |  |  |  |  |  |  |  | > 20 | > 20 | 0.4 (≈ 1.74 µM) |  |  | 
[O-][n+]1c(Cl)cccc1SCc1ccccc1 [Compound 149, 6-chloro-(2-benzylthio)pyridine-N-oxide] |  |  |  |  | 112 to 115 |  |  | 16 (≈ 63.6 µM) | 9 (≈ 35.8 µM) | 20 (≈ 79.4 µM) |  |  | 
Cc1ccc(C)c(CS(=O)(=O)c2ccccn2)c1 [Compound 150, 2-(2,5-dimethylbenzylsulfonyl)pyridine] | 20 (≈ 76.5 µM) | 3.25 (≈ 12.4 µM) | > 50 | 20.0 |  |  |  |  |  |  |  |  | 
[O-][n+]1cc(Cl)ccc1SCc1ccccc1 [Compound 151, 5-chloro-2(benzylthio)pyridine-N-oxide] |  |  |  | 20.0 |  | 0.0 | 0.0 | > 20 | > 20 | > 20 |  |  | 
CN1CCCC(CSc2cccc[n+]2[O-])C1 (stereo not shown) [Compound 156, 2-(N-methyl-3-piperidylmethylthio)pyridine-N-oxide] |  |  |  | 0.0 |  | 0.0 |  | > 100 | 16 (≈ 67.1 µM) | > 50 |  |  | 
Cc1ccc(C)c(CSc2ccccn2)c1.Cl [Compound 157, 2-(2,5-dimethylphenylmethylthio)pyridine hydrochloride] | ≥ 20 | 6 | > 50 | 0.0 |  | 37.5 |  |  |  |  |  |  | 
N#CC(=Cc1ccccc1)Sc1cccc[n+]1[O-] [Compound 158, 2-(1-cyano-2-phenylethenethio) pyridine-N-oxide] |  |  |  |  |  | 0.0 | 0.0 |  |  |  | >4 | >4 | 3.6
COc1ccc(C=C(C#N)Sc2cccc[n+]2[O-])cc1 [Compound 159, 2-[1-cyano-2-(p-methoxyphenyl)ethenethio]pyridine-N-oxide] |  |  |  |  |  | 25.0 | 0.0 | > 20 | > 20 | 10 (≈ 35.2 µM) |  |  | 
COc1cc(C=C(C#N)Sc2cccc[n+]2[O-])cc(OC)c1OC [Compound 160, 2-[1-cyano-2-(3,4,5-trimethoxyphenyl)ethenethio]pyridine-N-oxide] |  |  |  |  |  | 0.0 | 0.0 | > 20 | > 20 | 7 (≈ 20.3 µM) |  |  | 
Cc1ccc(C)c(C(C)S(=O)(=O)c2ccccn2)c1 (stereo not shown) [Compound 161, 2-[1-(2,5-dimethylphenyl)ethylsulfonyl]pyridine] | > 100 | 9.5 (≈ 34.5 µM) | 38 (≈ 138 µM) |  |  | 0.0 |  |  |  |  |  |  | 
Cc1ccc(C)c(C(C)Sc2cc(C)c3ccccc3n2)c1 (stereo not shown) [Compound 162, 2-[[1-(2,5-dimethylphenyl)ethyl]thio]-4-methylquinoline] |  |  |  |  | 84 to 85 | 0.0 | 0.0 | > 0.16 | > 0.8 | 1.6 (≈ 5.2 µM) |  |  | 
ethyl-N-[4-(pyridyl-N-oxide-2-sulfonylmethyl)phenylcarbonyl]carbamate [Compound 60] |  |  |  | 0.0 |  |  |  |  |  |  | 17.0 | 40.00 | >50
